In ChEMBL document CHEMBL1155159, “Population pharmacokinetics of tafenoquine during malaria prophylaxis in healthy subjects” (Antimicrob Agents Chemother, 2007):

What was measured:
[1] = Clast in po dosed human receiving 600 mg cumulative dose and reporting drug-associated vomiting and/or nausea reported on day 3 at 200 mg daily for 3 days followed by weekly dose of 200 mg for 6 months; format: ADME, organism-based; settings: in vivo, read-out: Clast
[2] = Clast in po dosed human […] and reporting drug-associated hyperesthesia on day 12 dosed at 200 mg daily for 3 days followed by weekly dose of 200 mg for 6 months; format: ADME, organism-based; settings: in vivo, read-out: Clast
[3] = Clast in po dosed human receiving 1000 mg cumulative dose and reporting drug-associated abdominal pain on day 20 at 200 mg daily for 3 days followed by weekly dose of 200 mg for 6 months; format: ADME, organism-based, Abdomen; settings: in vivo, read-out: Clast
[4] = Clast in po dosed human receiving 1000 mg cumulative dose and reporting drug-associated depression reported on day 24 at 200 mg daily for 3 days followed by weekly dose of 200 mg for 6 months; format: ADME, organism-based; settings: in vivo, read-out: Clast
[5] = Apparent clearance with respect to the bioavailability po dosed human receiving 400 mg cumulative dose and reporting drug-associated diarrhea and/or abdominal pain on day 2 at 200 mg daily for 3 days followed by weekly dose of 200 mg for 6 months; format: ADME, organism-based, Abdomen; settings: in vivo
[6] = Apparent clearance with respect to the bioavailability po dosed human receiving 200 mg cumulative dose and reporting drug-associated insomnia reported on day 1 at 200 mg daily for 3 days followed by weekly dose of 200 mg for 6 months; format: ADME, organism-based; settings: in vivo
[7] = Apparent clearance with respect to the bioavailability po dosed human receiving 800 mg cumulative dose and reporting drug-associated with hyperesthesia on day 12 at 200 mg daily for 3 days followed by weekly dose of 200 mg for 6 months; format: ADME, organism-based; settings: in vivo
[8] = Apparent clearance with respect to the bioavailability po dosed human receiving 1000 mg cumulative dose and reporting drug-associated depression on day 24 at 200 mg daily for 3 days followed by weekly dose of 200 mg for 6 months; format: ADME, organism-based; settings: in vivo
[9] = Apparent clearance with respect to the bioavailability in human at 600 mg cumulative dose with vomiting and/or nausea reported on day 3 at 200 mg daily for 3 days followed by weekly dose of 200 mg for 6 months, po; format: ADME, organism-based; settings: in vivo
[10] = Apparent volume of distribution with respect to the bioavailability in po dosed human receiving 400 mg cumulative dose and reporting drug-associated diarrhea and/or abdominal pain on day 2 at 200 mg daily for 3 days followed by weekly dose of 200 mg for 6 months; format: ADME, organism-based, Abdomen; settings: in vivo, read-out: Vc/F
[11] = Apparent volume of distribution with respect to the bioavailability in po dosed human receiving 400 mg cumulative dose and reporting drug-associated insomnia on day 1 at 200 mg daily for 3 days followed by weekly dose of 200 mg for 6 months; format: ADME, organism-based; settings: in vivo, read-out: Vc/F
[12] = Apparent volume of distribution with respect to the bioavailability in po dosed human receiving 800 mg cumulative dose and reporting drug-associated hyperesthesia on day 12 at 200 mg daily for 3 days followed by weekly dose of 200 mg for 6 months; format: ADME, organism-based; settings: in vivo, read-out: Vc/F
[13] = Apparent volume of distribution with respect to the bioavailability in po dosed human receiving 1000 mg cumulative dose and reporting drug-associated abdominal pain on day 20 at 200 mg daily for 3 days followed by weekly dose of 200 mg for 6 months; format: ADME, organism-based, Abdomen; settings: in vivo, read-out: Vc/F
[14] = Apparent volume of distribution with respect to the bioavailability in po dosed human receiving 1000 mg cumulative dose and reporting drug-associated depression on day 24 at 200 mg daily for 3 days followed by weekly dose of 200 mg for 6 months; format: ADME, organism-based; settings: in vivo, read-out: Vc/F
[15] = Apparent volume of distribution with respect to the bioavailability in po dosed human receiving 600 mg cumulative dose and reporting drug-associated vomiting and/or nausea on day 3 at 200 mg daily for 3 days followed by weekly dose of 200 mg for 6 months; format: ADME, organism-based; settings: in vivo, read-out: Vc/F
[16] = Half life po dosed human receiving 400 mg cumulative dose and reporting drug-associated diarrhea and/or abdominal pain on day 2 at 200 mg daily for 3 days followed by weekly dose of 200 mg for 6 months; format: ADME, organism-based, Abdomen; settings: in vivo
[17] = Half life po dosed human receiving 200 mg cumulative dose and reporting drug-associated insomnia on day 1 at 200 mg daily for 3 days followed by weekly dose of 200 mg for 6 months; format: ADME, organism-based; settings: in vivo
[18] = Half life po dosed human receiving 800 mg cumulative dose and reporting drug-associated hyperesthesia on day 12 at 200 mg daily for 3 days followed by weekly dose of 200 mg for 6 months; format: ADME, organism-based; settings: in vivo
[19] = Half life po dosed human receiving 1000 mg cumulative dose and reporting drug-associated abdominal pain on day 20 at 200 mg daily for 3 days followed by weekly dose of 200 mg for 6 months; format: ADME, organism-based, Abdomen; settings: in vivo
[20] = Half life po dosed human receiving 1000 mg cumulative dose and reporting drug-associated depression on day 24 at 200 mg daily for 3 days followed by weekly dose of 200 mg for 6 months; format: ADME, organism-based; settings: in vivo
[21] = Half life po dosed human receiving 1000 mg cumulative dose and reporting drug-associated vomiting and/or nausea on day 3 at 200 mg daily for 3 days followed by weekly dose of 200 mg for 6 months; format: ADME, organism-based; settings: in vivo
[22] = Apparent clearance with respect to bioavailability in po dosed human at 200 mg daily for 3 days followed by weekly dose of 200 mg for 6 months; format: ADME, organism-based; settings: in vivo
[23] = Apparent volume of distribution with respect to bioavailability in po dosed human at 200 mg daily for 3 days followed by weekly dose of 200 mg for 6 months; format: ADME, organism-based; settings: in vivo, read-out: Vc/F
[24] = Half life in po dosed human at 200 mg daily for 3 days followed by weekly dose of 200 mg for 6 months; format: ADME, organism-based; settings: in vivo
[25] = Tmax in fasted human; format: ADME, organism-based; settings: in vivo
[26] = Tmax in human administered with standard high-fat meal; format: ADME, organism-based; settings: in vivo
[27] = Trough concentration in po dosed human at 200 mg daily for 3 days followed by weekly dose of 200 mg for 6 months after 4 weeks; format: ADME, organism-based; settings: in vivo, read-out: Cmin
[28] = Apparent clearance with respect to the bioavailability po dosed human receiving 1000 mg cumulative dose and reporting drug-associated abdominal pain on day 20 at 200 mg daily for 3 days followed by weekly dose of 200 mg for 6 months; format: ADME, organism-based, Abdomen; settings: in vivo
[29] = Trough concentration in po dosed human at 200 mg daily for 3 days followed by weekly dose of 200 mg for 6 months after 8 weeks; format: ADME, organism-based; settings: in vivo, read-out: Cmin
[30] = Trough concentration in po dosed human at 200 mg daily for 3 days followed by weekly dose of 200 mg for 6 months after 16 weeks; format: ADME, organism-based; settings: in vivo, read-out: Cmin

## COc1cc(C)c2c(Oc3cccc(C(F)(F)F)c3)c(OC)cc(NC(C)CCCN)c2n1 (stereo not given) [TAFENOQUINE]
[1]
  concentration at 72 h: 315 ng/mL
[2]
  concentration at 72 h: 283 ng/mL
[3]
  concentration at 72 h: 253 ng/mL
[4]
  concentration at 72 h: 275 ng/mL
[5]
  CL/F: 0.983 mL/min/kg
[6]
  CL/F: 0.983 mL/min/kg
[7]
  CL/F: 0.767 mL/min/kg
[8]
  CL/F: 1.02 mL/min/kg
[9]
  CL/F: 1.28 mL/min/kg
[10]
  Vd/F: 24.4 L/kg
[11]
  Vd/F: 23.2 L/kg
[12]
  Vd/F: 20.7 L/kg
[13]
  Vd/F: 27.8 L/kg
[14]
  Vd/F: 25.1 L/kg
[15]
  Vd/F: 26.1 L/kg
[16]
  half-life: 12 days
[17]
  half-life: 11.3 days
[18]
  half-life: 13.1 days
[19]
  half-life: 15.1 days
[20]
  half-life: 12 days
[21]
  half-life: 9.8 days
[22]
  CL/F: 72.8 mL/min
[23]
  Vd/F: 1900 L
[24]
  half-life: 12.7 days
[25]
  Tmax: 0.775 days
[26]
  Tmax: 1.1 days
[27]
  concentration at 672 h: 221 ng/mL
[28]
  CL/F: 0.883 mL/min/kg
[29]
  concentration at 1344 h: 221 ng/mL
[30]
  concentration at 2688 h: 221 ng/mL
